Earlier results as cited in patent publication US20040131694A1, “Pharmaceutical composition for the medical treatment of the benign prostatic hyperplasia, its preparation method and its therapeutic application” (H.P.B. S.A., priority 2002, published 2004).

Tested on: Bladder outlet obstruction due to Benign Prostatic Hyperplasia
[1] = Up to 24 weaks of treatment, Tammela and Kontturi 1993

CC(C)(C)NC(=O)[C@H]1CC[C@H]2[C@@H]3CC[C@H]4NC(=O)C=C[C@]4(C)[C@H]3CC[C@]12C [Finasteride]
Daytime frequency [1]: 1.4
Dysuria [1]: 0.4
Hesitancy [1]: 0.5
Intermittence [1]: 0.7
Nocturia [1]: 1.5
Prostatic specific antigen (ng. %) [1]: 2.9 ng. %
Prostatic volume (grs.) [1]: 35 gr.
Q max. [1]: 10.3 mL/s
Residual urine volume (ml.) [1]: 76 cc
Sensation of incomplete Voiding [1]: 0.9
Terminal dribbling [1]: 0.4
Total points (I-PSS) [1]: 7.1 points
Urgency [1]: 0.7
Weak stream [1]: 0.6
Residual effect (treatment must be continuous): none
